Assay results: EP2667887B1, “PHARMACEUTICAL COMPOSITION COMPRISING THE PEPTIDE GLU-ASP-GLY AND USE FOR TREATING HELICOBACTER PYLORI INDUCED GASTRODUODENAL DISEASES” («Garmonia», Ltd., priority 2011, dated 2012)

Experiments:
[1] = test system: mice embryonic fibroblasts (MEF+/+, knockout mice line LMNA); assay: Effect on Helicobacter pylori-induced mitochondrial damage in mouse embryonic fibroblasts (mito-GFP confocal microscopy); type: cell-based; conditions: peptide 10 µM added 30 minutes before Helicobacter pylori (strain Cag J117), 7 hours incubation; compared to control
Method: A study of the effect of a pharmaceutical composition comprising the peptide H-Glu-Asp-Gly-OH as an active substance on molecular and cellular mechanisms of apoptosis was carried out on a wild type of mice embryonic fibroblasts (MEF+/+, knockout mice line LMNA). Cells were cultivated at 37°C in a damp incubation medium containing 5% CO2 in DMEM (Dulbecco's Modified Eagle's Medium, ICN Biomedicals) and 10% calf embryonic serum. Preliminary sorting of cells for passaging in a 1:3-1:5 ratio was performed using a mixture of 0.125% trypsin, 0.02M EDTA (ethylenediaminetetraacetic acid), 0.02% glucose dissolved in a phosphate buffer. Cells were passaged in a culturing medium for 5 days and then taken for the study.
On the 5th day after the beginning of passaging of the cells peptide H-Glu-Asp-Gly-OH was added in the culturing medium in the dose of 10 µM, and in 30 minutes the cells were taken for study. […]
The status of isolated mitochondria was evaluated using immunofluorescent confocal laser microscopy. […]
Confocal microscopy of mitochondria with optical density evaluation was carried out in an inverted confocal microscope Olympus Fluoview CM FV300-IX70 using an apochromatic lens 606 UPlan (Olympus). A 488 nm excitation wave of argon laser was used in each chamber to specify mito-GFP fluorescence that verifies the structure of mitochondria.

modeled ulcer = assay: Morphology study of the induced gastric ulcer (cysteamine-HCL + Helicobacter pylori); type: in vivo, Sprague Dawley rats
Method: The study was carried out on 90 male Sprague Dawley rats (180-220 g) randomly subdivided into 9 groups (10 animals per group): • Group 1 - intact rats (saline solution) • Group 2 - modeled ulcer + saline solution • Group 3 (6 subgroups) - modeled ulcer + H-Glu-Asp-Gly-OH • Group 4 - modeled ulcer + Klacid antibiotic
Ulcer was modeled by three-time administration (in 4 hours) in the rat stomach of cysteamine-HCL (Aldrich, Milwannee, WI) by means of a probe in the dose of 25 mg per 100 g of body weight. The ulcer, approximately 28 mm^2 in size, appeared at the boundary between antral and fundal segments of the stomach 12 hours after the last administration. Simultaneously with the first administration of cysteamine-HCL a Helicobacter pylori culture (Curtin Matheson Scientific Inc, strain Cag J117, 100 microbial cells) was administered in the rat stomach through the same probe.
(§1) A means on the basis of the pharmaceutical composition comprising the studied peptide H-Glu-Asp-Gly-OH was administered subcutaneously in the dose of 1 µg per kg of animal body weight (group 3a), 2,5 µg per kg of body weight (group 3b) and 10 µg per kg of body weight (group 3c) in 0,5 ml of saline solution daily, for 5 days from the occurrence of the stomach ulcer.
as §1, with “The means” for “A means”, “administered intragastrically (through a probe)” for “administered subcutaneously”, “(group 3d),” for “(group 3a),”, “(group 3e)” for “(group 3b)”, “(group 3f)” for “(group 3c)”
Antibiotic Klacid (clarithromycin, Abbott) was administered intramuscularly in the dose of 10 mg in 1 ml of saline solution daily for 5 days from the occurrence of the stomach ulcer.
Material for study was taken from ulcer edge on the 7th day (for western blot assay and polymerase chain reaction in real time - RT-PCR), as well as on the 7th, 15th and 21st day for morphology study and confocal microscopy.
For a morphology study, pieces of gastric mucous membrane from the ulcer edge were fixed in 10% neutral formalin (pH 7.2), then the material was dried out in a Leica TP1020 automatic station (Leica) and covered with paraffin. 5 µm thick paraffin slices were placed on object plates covered with a poly-L-lysine film (Sigma). For a visual study the slices were stained with hematoxylin and eosin, as well as with picrofuxin by the van Gison method.

[2] = Acute toxicity study, single administration; type: in vivo, white mongrel male mice; conditions: mice, single intramuscular administration, 1-5 mg/kg; dose exceeds the therapeutic dose by more than 5000 times
Method: General toxicity of peptide H-Glu-Asp-Gly-OH was studied in accordance with the requirements of "Manual for Experimental (Pre-Clinical) Study of New Pharmacological Substances" (2000): acute toxicity in case of a single administration of the preparation, as well as subacute and chronic toxicity in case of a long-term administration of the peptide.
Acute toxicity study was carried out on 66 white mongrel male mice with body weight 20-22 g. The animals were randomly subdivided into 6 equal groups. The preparation was administered to the animals once, intramuscularly in the doses of 1, 2, 3, 4, 5 mg/kg in 0,25 ml of sterile 0,9% NaCl solution. Control animals were treated with 0,9% NaCl solution in the same volume.

With “glutamyl-aspartyl-glycine [H-Glu-Asp-Gly-OH]” the “luminescence of mitochondrial GFP in terms of optical density values” [1] was “exceeded the control indices”, the “ulcer pathomorphosis, 7th day” value (modeled ulcer; 7th day after ulcer induction, treatment daily for 5 days, peptide 1, 2,5, 10 µg/kg subcutaneously or intragastrically, Klacid 10 mg intramuscularly) was “a decrease both in the area of the ulcerous lesion and in its depth was observed” and the “ulcer pathomorphosis, 15th day” value (modeled ulcer; 15th day after ulcer induction, treatment daily for 5 days, peptide 1, 2,5, 10 µg/kg subcutaneously or intragastrically, Klacid 10 mg intramuscularly) was “a significant decrease in ulcerous lesion area and depth was observed”. For the same substance, the “ulcer pathomorphosis, 21st day” value (modeled ulcer; 21st day after ulcer induction, treatment daily for 5 days, peptide both methods of administration and three dosages, Klacid 10 mg intramuscularly) was “no ulcerous lesions were macroscopically observed”, the “pathomorphosis of an induced gastric ulcer (Fig. 12 C)” value (modeled ulcer; 21st day, peptide dose 2,5 µg/kg) was “complete epithelization of the ulcer” and the “delay of epithelialization of the ulcerous lesion compared to higher doses” value (modeled ulcer; dose 1,0 µg/kg (Groups 3a and 3d) versus 2,5 µg/kg and 10 µg/kg) was 2 to 3 days. For the same substance, the acute toxicity [2] was “does not cause toxic reactions”.
